For five compounds, MIC results are on record in DBAASP.

Common to all, as to test: ≥ marks a high value that may be exact or a test limit, other limits are often not marked, values filed in µg/mL are converted to µM
For assay [1], the system named is Pseudomonas aeruginosa CUN 4158-02.
Assay [2] relates to Escherichia coli ATCC 25922.
For assay [3], the system named is Bordetella bronchiseptica CUN 11844-99.
Assay [4] deals with Staphylococcus aureus ATCC 25923.
Assay [5] concerns Bacillus cereus ATCC 11778.
In assay [6] the test system is Enterococcus hirae ATCC 10541.
Assay [7] concerns Streptococcus pneumoniae ATCC 11733.
Assay [8] relates to Streptococcus mutans AU159.
The subject of assay [9] is Salmonella enterica subsp. enterica serovar Typhimurium ATCC 14028.
Assay [10] deals with Pseudomonas aeruginosa ATCC 15422.
Assay [11] concerns Staphylococcus epidermidis ATCC 12228.
Assay [12] concerns Escherichia coli CCT 1457.
Assay [13] has as its system Salmonella enterica subsp. enterica serovar Choleraesuis ATCC 10708.
For assay [14], the system named is Micrococcus luteus ATCC 4698.
The subject of assay [15] is Escherichia coli ATCC 11775.
The subject of assay [16] is Staphylococcus aureus CCT 6538.
Assay [17] has as its system Staphylococcus aureus CCT 2580.
In assay [18] the test system is Pseudomonas aeruginosa ATCC 13388.
The subject of assay [19] is Bacillus thuringiensis ATCC 10792.
Assay [20] has as its system Enterococcus faecium CCT 5079.
Assay [21] deals with Salmonella typhimurium CIP 103446.
In assay [22] the test system is Vibrio alginolyticus CIP 109819.
Assay [23] deals with Bacillus megaterium CIP 51.17.
Assay [24] relates to Listeria monocytogenes CIP 110871.
Assay [25] concerns Aeromonas salmonicida CIP 103209T.
Assay [26] deals with Enterococcus faecalis CIP 76.117.
Assay [27] deals with Staphylococcus aureus CIP 53.156.
In assay [28] the test system is Escherichia coli CIP 54.8T.
Assay [29] relates to Pseudomonas aeruginosa ATCC 27853.
In assay [30] the test system is Staphylococcus pseudintermedius.
In assay [31] the test system is Pseudomonas aeruginosa.
For assay [32], the system named is Staphylococcus aureus ATCC 29213.
Assay [33] has as its system Klebsiella pneumoniae KpC+001825971.
The test system of assay [34] is Enterobacter cloacae.
The subject of assay [35] is Staphylococcus aureus ATCC 12600.
For assay [36], the system named is Staphylococcus aureus.
Assay [37] relates to Klebsiella pneumoniae ATCC 13883.
Assay [38] relates to Escherichia coli ATCC 8739.
Assay [39] has as its system Acinetobacter baumannii.
In assay [40] the test system is Pseudomonas aeruginosa PAO1.
Assay [41] has as its system Escherichia coli KpC+001812446.
Assay [42] concerns Pseudomonas aeruginosa PA14.

Values after ≈ are worked out from the molar mass of the structure shown.

In general, MIC refers to the least concentration at which growth counts as inhibited. High values mean a less susceptible organism, low ones a more susceptible organism. With `CC[C@H](C)[C@H](NC(=O)CN)C(=O)NCC(=O)N[C@@H](CCCCN)C(=O)N[C@@H](Cc1ccccc1)C(=O)N[C@@H](CO)C(=O)N[C@@H](CCCCN)C(=O)N[C@@H](CCCCN)C(=O)NCC(=O)N[C@@H](C)C(=O)N[C@@H](C)C(=O)N[C@@H](C)C(=O)N[C@@H](CCCN=C(N)N)C(=O)N[C@@H](CCCN=C(N)N)C(=O)N[C@@H](CCCN=C(N)N)C(=O)N[C@@H](CCCCN)C(=O)N[C@H](C(=O)N[C@@H](CO)C(=O)N[C@@H](CC(C)C)C(=O)N[C@@H](CCCCN)C(=O)N[C@@H](C)C(=O)N[C@@H](CC(C)C)C(N)=O)C(C)C` [GIGKFSKKGAAARRRKVSLKAL], the minimal inhibitory concentration (MIC) in assay [1] is at least 219 µM; in [2] it was above 219 µM; in assay [3], at least 219 µM; in assay [4], above 219 µM.
As to `CC[C@H](C)[C@H](N)C(=O)N[C@@H](CC(N)=O)C(=O)N[C@@H](Cc1c[nH]c2ccccc12)C(=O)N[C@@H](CC(C)C)C(=O)N[C@@H](C)C(=O)N[C@H](C(=O)N[C@@H](C)C(=O)N[C@@H](CCCCN)C(=O)N[C@@H](CCCCN)C(=O)N[C@H](C(=O)N[C@@H](C)C(=O)NCC(=O)N[C@@H](CCSC)C(=O)N[C@@H](CC(C)C)C(N)=O)C(C)C)[C@@H](C)CC` [INWLAIAKKVAGML], the minimal inhibitory concentration (MIC) in [5] came out at 10.5 µM (≈ 16 µg/mL); in assay [6], 5.24 µM (≈ 8 µg/mL); in assay [7], 1.31 µM (≈ 2 µg/mL); in assay [2], 2.62 µM (≈ 4 µg/mL); in [8] it was 2.62 µM (≈ 4 µg/mL); in assay [9], 20.3 µM (≈ 31 µg/mL). Besides, the MIC in assay [10] was found to be 10.5 µM (≈ 16 µg/mL); in assay [11], 2.62 µM (≈ 4 µg/mL); in [12], 2.62 µM (≈ 4 µg/mL); in assay [13], 10.5 µM (≈ 16 µg/mL); in assay [14], 2.62 µM (≈ 4 µg/mL); in [15] it was 5.24 µM (≈ 8 µg/mL). Also, the MIC in assay [16] is 2.62 µM (≈ 4 µg/mL); in assay [17], 2.62 µM (≈ 4 µg/mL); in [4], 15.1 µM (≈ 23 µg/mL); in [18] it was at least 41.2 µM; in assay [19], 5.24 µM (≈ 8 µg/mL); in [20], 5.24 µM (≈ 8 µg/mL).
In the case of `CC[C@H](C)[C@H](NC(=O)[C@@H](N)CCCCN)C(=O)N[C@@H](CCCN=C(N)N)C(=O)N[C@@H](Cc1ccccc1)C(=O)N[C@H](C(=O)N[C@@H](CCCN=C(N)N)C(=O)N[C@H](C(=O)N[C@H](C(=O)N[C@@H](CO)C(=O)N[C@@H](CCCN=C(N)N)C(=O)N[C@@H](CC(C)C)C(=O)N[C@@H](CC(C)C)C(=O)N[C@@H](CCCCN)C(=O)N[C@@H](C)C(=O)N[C@@H](C)C(=O)N[C@@H](CC(C)C)C(=O)N[C@@H](C)C(=O)N[C@@H](CO)C(=O)N[C@H](C(=O)O)[C@@H](C)O)C(C)C)[C@@H](C)O)[C@@H](C)O` [KIRFTRTVSRLLKAALAST], the MIC in assay [21] was at least 86.6 µM; in [22], at least 35.4 µM; in [23], 3.16 µM (≈ 6.74 µg/mL); in [24], at least 50 µM; in [25], 15.8 µM (≈ 33.7 µg/mL); in assay [26] it was at least 122 µM. In addition, the MIC was determined as 15.8 µM (≈ 33.7 µg/mL) in assay [27] and 3.16 µM (≈ 6.74 µg/mL) in assay [28].
`CC[C@H](C)[C@H](NC(=O)[C@H](CC(C)C)NC(=O)[C@@H]1CCCN1C(=O)[C@H](CCCCN)NC(=O)[C@H](CC(C)C)NC(=O)[C@H](CCCN=C(N)N)NC(=O)[C@H](CCCN=C(N)N)NC(=O)[C@H](CC(C)C)NC(C)=O)C(=O)N[C@@H](CCCN=C(N)N)C(=O)N1CCC[C@H]1C(=O)N[C@@H](Cc1c[nH]c2ccccc12)C(=O)N[C@@H](CC(C)C)C(=O)N[C@@H](CCCN=C(N)N)C(=O)N1CCC[C@H]1C(=O)N[C@@H](CC(C)C)C(=O)N[C@@H](CCCN=C(N)N)C(=O)N[C@@H](CCCN=C(N)N)C(=O)N[C@@H](Cc1c[nH]c2ccccc12)C(=O)N[C@@H](Cc1c[nH]c2ccccc12)C(=O)N[C@@H](Cc1c[nH]c2ccccc12)C(N)=O` [LRRLKPLIRPWLRPLRRWWW]: the minimum inhibitory concentration (MIC) in [29] worked out at 5.72 µM (≈ 16.2 µg/mL); in assay [30], 16.2 µM (≈ 45.9 µg/mL); in assay [31] it was 4.04 µM (≈ 11.5 µg/mL); in assay [32], 11.4 µM (≈ 32.5 µg/mL).
In the case of `CC[C@H](C)[C@H](NC(=O)[C@H](CCCCN)NC(=O)[C@H](CCCCN)NC(=O)CNC(=O)[C@H](CC(C)C)NC(=O)[C@H](CCCN=C(N)N)NC(=O)[C@H](CCCCN)NC(=O)[C@H](CC(C)C)NC(=O)[C@H](CC(C)C)NC(=O)[C@H](CCCCN)NC(=O)[C@H](CCSC)NC(=O)[C@@H]1CCCN1)C(=O)N[C@@H](CCCN=C(N)N)C(=O)N[C@@H](CC(C)C)C(=O)N[C@@H](C)C(=O)N[C@@H](C)C(=O)N[C@@H](C)C(=O)N[C@@H](Cc1ccccc1)C(=O)N[C@@H](CCCCN)C(=O)O` [PMKLLKRLGKKIRLAAAFK], the MIC in assay [33] is at least 32 µM; in assay [34], at least 32 µM; in assay [2], 4 µM (≈ 8.73 µg/mL); in [35], 4 µM (≈ 8.73 µg/mL); in assay [36], 16 µM (≈ 34.9 µg/mL); in assay [37] it was 8 µM (≈ 17.5 µg/mL). Besides, the MIC stood at 14.7 µM (≈ 32 µg/mL) in assay [38]; 4 µM (≈ 8.73 µg/mL) in assay [39]; 4 µM (≈ 8.73 µg/mL) in [40]; 16 µM (≈ 34.9 µg/mL) in assay [4]; 2 µM (≈ 4.37 µg/mL) in assay [41]; 4 µM (≈ 8.73 µg/mL) in assay [42].
